Assay results from article PMC10783051 (Microbiology Spectrum, 2023).

System: Streptomyces venezuelae ATCC 10712
Test: In planta co-inoculation on tomato roots, UPLC-MS of rhizosphere extracts
Settings: tomato roots on Hoagland agar, 7 days at 22°C, UPLC-MS of agar near the roots, four biological replicates
Protocol: For the in planta studies, tomato seeds (Solanum lycopersicum var. Moneymaker) were sterilized following the protocol described by ([26]). Briefly, tomato seeds were primarily sterilized in 70% ethanol (vol/vol) by gently shaking for 2 min. Further, the ethanol was removed and the seeds were added to 50 mL of the sterilization solution [4.5 mL of bleach containing 9.5% (vol/vol) of active chlorine, 0.01 g of Tween 80, and 45.5 mL of sterile water] and gently shaken for 10 min. Seeds were thereafter washed 10 times with water to eliminate sterilization solution residues. […]
All UPLC-MS analyses were performed using an Agilent 1290 Infinity II coupled with a diode array detector and a mass detector (Jet Stream ESI-Q-TOF 6530) in positive mode with the parameters set up as follows: capillary voltage of 3.5 kV, nebulizer pressure of 35 lb/in^2, drying gas of 8 L/min, drying gas temperature of 300°C, flow rate of sheath gas of 11 L/min, sheath gas temperature of 350°C, fragmentor voltage of 175 V, skimmer voltage of 65 V, and octopole radiofrequency of 750 V. Accurate mass spectra were recorded in the m/z range of 300–1,700. […]

iturin
linear forms in rhizosphere extracts upon co-inoculation of Bv with Sv: high proportion of linear
